This series relates to Lipoclean lipase. Nature of the series: Storage stability of liquid Lipoclean lipase formulation: residual lipase activity (PNP-Palmitate hydrolysis, 405 nm) versus frozen reference. The settings on record: 2% enzyme protein, sorbitol and glycerol, 0.08% Z-GAY-H, compared with frozen reference sample. Format: biochemical. How it is done:
Lipoclean formulations, per se (LCLU/g) residual activities: The Lipase was formulated from crude concentrate with standard formulation ingredients (sorbitol and glycerol) with and without the serine protease inhibitor (2% enzyme protein, 0.08% Z-GAY-H added with a 1% DMSO solution). The solution was split into separate vials which were incubated at different temperature and times and compared in activity with a frozen reference sample frozen directly after mixing. The lipase activity was measured by ester bond hydrolysis in the substrate PNP-Palmitate (C:16) and releases PNP which is yellow and can be detected at 405 nm.

As to “Z-GAY-H [0.08% serine protease inhibitor]”, the “residual activities (lipase)” value amounted to 71% (2 weeks, 50° C.); 70% (4 weeks, 40° C.); 56% (4 weeks, 50° C.).
